# Results taken from US20250130239A1, “PROTEIN DEGRADER” (University of Dundee, priority 2021, published 2025).
# Experiments:
# BromoTag-Brd2 [1] = target: T1, BromoTag-Brd2 (Homo sapiens, UniProt O60885+P40337, L387A); test: Competition assay (inhibitor pre-treatment, then AGB1); assay type: cell-based; conditions: then 200 nM 46 for 3 h
# T1 construct: comprising residues 368-440 of human Brd4; Brd2 (endogenous protein, fusion partner in the same polypeptide); eGFP-P2A (upstream marker in the knock-in cassette) (N, cleaved yes); expressed in transfected cells; host or cells: HEK293, heterozygous CRISPR knock-in at the endogenous BRD2 locus
# Experimental: Competition Assay. Heterozygous BromoTag-Brd2 HEK293 cells were plated in six-well plates at a density of 5×10^5 cells per well in 2 mL DMEM media. […] After 1 h, 200 nM of AGB1 was added to the previously compound treated cells. After a following 3 h the cells were harvested for subsequent processing via western blot. Each treatment was performed in tandem to produce two technical repeats per condition. The 6 well plates were incubated for 4 h at 37° C. and 5% CO2 throughout the experiment.
# (§1) Western Blotting. All cells were harvested on ice with RIPA lysis, and extraction buffer (ThermoFisher Scientific, 89901) supplemented with protease inhibitor cocktail (Merck, 11697498001) and Benzonase® Nuclease (Sigma, E1014) before being store at −20° C. prior to use. Total protein quantity was determined using the BCA protein assay (#23225, Pierce, Rockford, Illinois). Protein concentration was determined using the BCA assay (ThermoFisher Scientific, 23225). Samples were then prepared and loaded onto NuPAGE™ 4-12% Bis-Tris Midi gels (ThermoFisher Scientific, WG1403A), followed by the transfer of the proteins onto nitrocellulose membranes (EMD Millipore). The membranes were blocked for 1 h prior to incubation with the primary antibodies using 5% Milk TBST. Membranes were probed for Brd2 (Abcam, Ab139690, 1:1000), Brd3 (Abcam, Ab50818, 1:4000), Brd4 (Abcam, Ab128874, 1:1000) or our polyclonal Brd4^BD2 L387A antibody. Following overnight incubation with the primary antibodies at 4° C., the membranes were incubated with secondary antibodies (Anti-rabbit, Abcam AB216773, 1:5000 or anti-mouse, Abcam AB216774, 1:5000) and hFAB™ Rhodamine Anti-Tubulin Antibody (Biorad, 12004165, 1:10000) for one h and then imaged with a Bio-Rad imager (LI-COR Biosciences). All western blots were analysed for band intensities using Image Lab from Bio-Rad (LI-COR, Biosciences). The data extracted from these blots were then plotted and analysed using Prism (v. 8.2.0, GraphPad).
# Plasma stability = assay type: in vitro ADME; conditions: mouse plasma, 37° C., over 1 h
# Experimental: Plasma Stability. Plasma stability studies were outsourced and undertaken by Shanghai ChemPartner Co., Ltd. Buffer preparation: A solution of 0.05 M sodium phosphate and 0.07 M NaCl buffer at pH 7.4 was made by dissolving 14.505 g/L Na2HPO4·12H2O, 1.483 g/L NaH2PO4·2H2O and 4.095 g/L NaCl in deionized water and the pH adjusted with phosphoric acid. Plasma preparation: Frozen mouse plasma was thawed by placing at 37° C. quickly. The thawed plasma was centrifuged at 3,000 rpm for 8 min to remove clots and the supernatant was pooled to be used as the plasma in the experiment. The plasma (pH 7.4-8.0) was stored on ice until used. […] Plasma and spiking solutions were pre-warmed at 37° C. for 5 min, then 10 μL of pre-warmed spiking solution B were added into the wells designated for all the time points (5, 15, 30, 45, 60 min). For 0-min, 400 μL of acetonitrile containing internal standards (Imipramine, Glipizide) were added to the wells of 0-min plate and then 90 μL of plasma was added. For the time points (0, 5, 15, 30, 45, 60 min), 90 μL of pre-warmed plasma was added to start timing. At 5, 15, 30, 45, 60 min, 400 μL of acetonitrile containing internal standard (Imipramine, Glipizide) were added to the wells of corresponding plates, respectively, to stop the reaction. […] Data was analysed with Microsoft Excel.
# [2] = target: T2, VHL, compound preincubated with Brd4^BD2 L387A (Homo sapiens, UniProt O60885+P40337, L387A); test: Fluorescence polarization competitive binding assay, ternary complex binding; conditions: displacement of HIF-1a peptide probe, read-out: ternary binding affinity Kd
# T2 construct: N-terminally Hiss-tagged VHL (54-213); N-terminally His6-tagged Brd4-BD2^L387A (333-460) was expressed in E. coli; His6 (N, cleaved yes); made in house; host or cells: E. coli
# Experimental: Protein Expression and Purification. […] The complex was further purified by anion exchange followed by gel filtration chromatography.
# Fluorescence Polarization Binding Assay. […] All components were dissolved from stock solutions using 100 mM Bis-Tris propane, 100 mM NaCl, 1 mM DTT, pH 7.0, to yield a final assay volume of 15 μL. DMSO was added as appropriate to ensure a final concentration of 2% v/v. […] Percentage displacement values were obtained by normalization of controls were plotted against Log[Compound]. IC50 values were determined for each titration using nonlinear regression analysis with Prism (v. 9.1.0, GraphPad). […] Cooperativity values (a) for each PROTAC were calculated using the ratio: α=binary Kd (−bromodomain)/ternary Kd (+bromodomain).
# BromoTag-Brd2 [3] = target: T1, BromoTag-Brd2; test: Recovery (washout) assay; assay type: cell-based
# Experimental: Recovery Assay. A recovery assay was performed using 200 nM AGB1 over a 72 h period. This was performed in the genotype verified heterozygous BromoTag-Brd2 HEK293 cell line. Heterozygous BromoTag-Brd2 HEK293 cells were plated at a density of 5×10^5 cells per well of a six-well plate a day before initiating the recovery assay. On the experiment day, cells were washed with PBS before fresh DMEM was applied to contain either DMSO or AGB1 200 nM. During treatment, cells were kept at 37° C., 5% CO2, and 95% humidity. After three hours, the recovery and vehicle control condition cells were rewashed with PBS before fresh DMEM was applied absent 200 nM AGB1 or DMSO. As for the positive control condition, they were left with 200 nM AGB1 for the remainder of the treatment time.
# as §1, with “Following overnight incubation with the primary antibodies at 4° C., the membranes were incubated with secondary antibodies (Anti-rabbit, Abcam AB216773, 1:5000 or anti-mouse, Abcam AB216774, 1:5000) and hFAB™ Rhodamine Anti-Tubulin Antibody (Biorad, 12004165, 1:10000) for one h and then imaged with a Bio-Rad imager (LI-COR Biosciences).” left out
smiles,measurement,setting,value
"CC[C@@H](C(=O)OCCOCCOCCOCC(=O)N[C@H](C(=O)N1C[C@H](O)C[C@H]1C(=O)NCc1ccc(-c2scnc2C)cc1)C(C)(C)C)[C@@H]1N=C(c2ccc(Cl)cc2)c2c(sc(C)c2C)-n2c(C)nnc21 (single isomer, unassigned) [AGB1 (46)]",on-target degradation activity after pre-treatment with MLN4924,BromoTag-Brd2 [1]; 3 μM MLN4924 1 h,completely abrogated
same,on-target degradation activity after pre-treatment with ET-JQ1-OMe,BromoTag-Brd2 [1]; 10 μM ET-JQ1-OMe 1 h,A similar outcome
same,on-target degradation activity after pre-treatment with VH298,BromoTag-Brd2 [1]; 10 μM VH298 1 h,completely abrogated
same,on-target degradation activity after pre-treatment with MG132,BromoTag-Brd2 [1]; 50 μM MG132 1 h,blocked
same,"plasma stability, levels remaining",Plasma stability,no significant changes
same,Kd,[2],11 nM
same,time after washout at which BromoTag-Brd2 protein levels recover,"BromoTag-Brd2 [3]; 200 nM for 3 h, then washout",24 h
same,BromoTag-Brd2 level after 3 h treatment,"BromoTag-Brd2 [3]; 200 nM, 3 h",complete depletion
same,on-target degradation without washout,"BromoTag-Brd2 [3]; 200 nM, no washout",complete and durable on-target degradation for up to 72 h
